Assay results published in patent publication US20200385777A1, “METHOD FOR DETERMINING DYSBIOSIS IN THE INTESTINAL MICROBIOME” (EVOLVE BIOSYSTEMS, INC., priority 2018, published 2020).

Tests used:
isolate 7005-9 = experiment: MIC microdilution, fecal isolate 7005-9; assay type: cell-based; conditions: for MIC: read-out: Minimum inhibitory concentration (MIC)
Method: (§1) Whole genome sequencing and assembly of bacterial isolates. […] Selected isolates were grown in 20 ml LB broth overnight at 37° C. Cultures were aliquoted into 1 ml aliquots, centrifuged at 10,000×g for 5 min and the supernatant was removed. Cell pellets were resuspended in DNA/RNA Shield solution provided in DNA/RNA Shield Microbe Lysis tubes (Zymo Research, Irvine Calif.) and transferred into lysis tubes. High-molecular weight genomic DNA was extracted using the Quick-DNA Fecal/Soil
(§2) Minimal inhibitory concentrations. […] Carbenicillin was added to growth media for transformed strains at a concentration of 100 μg/ml. The microtiter plates were incubated for 24 h at 37° C. The optical density (OD) of each well was measured at 600 nm using an automated microtiter plate reader (BIO-TEK, Synergy HT). The MIC corresponded to the lowest antibiotic concentration at which no growth was detected. All tests were performed in triplicate

isolate 7174-2 = experiment: MIC microdilution, fecal isolate 7174-2; assay type: cell-based; conditions: for MIC: read-out: Minimum inhibitory concentration (MIC)
Method: as §1, §2

isolate 7174-5 = experiment: MIC microdilution, fecal isolate 7174-5; assay type: cell-based; conditions: for MIC: read-out: Minimum inhibitory concentration (MIC)
Method: as §1, §2

isolate 7174-4 = experiment: MIC microdilution, fecal isolate 7174-4; assay type: cell-based; conditions: for MIC: read-out: Minimum inhibitory concentration (MIC)
Method: as §1, §2

isolate 7084-1 = experiment: MIC microdilution, fecal isolate 7084-1; assay type: cell-based; conditions: for MIC: read-out: Minimum inhibitory concentration (MIC)
Method: as §1, §2

isolate 7084-4 = experiment: MIC microdilution, fecal isolate 7084-4; assay type: cell-based; conditions: for MIC: read-out: Minimum inhibitory concentration (MIC)
Method: as §1, §2

isolate 7122-9 = experiment: MIC microdilution, fecal isolate 7122-9; assay type: cell-based; conditions: for MIC: read-out: Minimum inhibitory concentration (MIC)
Method: as §1, §2

isolate 7005-5 = experiment: MIC microdilution, fecal isolate 7005-5; assay type: cell-based; conditions: for MIC: read-out: Minimum inhibitory concentration (MIC)
Method: as §1, §2

isolate 7005-11 = experiment: MIC microdilution, fecal isolate 7005-11; assay type: cell-based; conditions: for MIC: read-out: Minimum inhibitory concentration (MIC)
Method: as §1, §2

isolate 7122-1 = experiment: MIC microdilution, fecal isolate 7122-1; assay type: cell-based; conditions: for MIC: read-out: Minimum inhibitory concentration (MIC)
Method: as §1, §2

isolate 7122-2 = experiment: MIC microdilution, fecal isolate 7122-2; assay type: cell-based; conditions: for MIC: read-out: Minimum inhibitory concentration (MIC)
Method: as §1, §2

DH5α = experiment: MIC microdilution, DH5α; assay type: cell-based; conditions: for MIC: read-out: Minimum inhibitory concentration (MIC)
Method: as §2

isolate 7084-5 = experiment: MIC microdilution, fecal isolate 7084-5; assay type: cell-based; conditions: for MIC: read-out: Minimum inhibitory concentration (MIC)
Method: as §1, §2

isolate 7005-13 = experiment: MIC microdilution, fecal isolate 7005-13; assay type: cell-based; conditions: for MIC: read-out: Minimum inhibitory concentration (MIC)
Method: as §1, §2

[1] = test system: bacteria isolated from EMB agar from fecal samples of control infants; experiment: MIC, fecal isolates of control infants taken together; assay type: cell-based, Escherichia coli; Raoultella planticola; conditions: all fecal isolates
Method: To confirm the presence of full length, functional ARGs and the relationship of these ARGs to individual resistance phenotypes at the strain level, bacteria isolated from EMB agar were obtained from the fecal samples of four representative control infants. Whole-genome sequencing of twelve isolates was performed on a MinION sequencer and assembly led to an average coverage of 18× (min 5.4; max 40). Taxonomic identification was confirmed via BLASTN against the NCBI nucleotide database (https://www.ncbl.nlrn.nih.gov/nucleotide) showing three isolates classified as Raoultella planticola and the remaining nine as Escherichia coli. The CARD protein sequences collection was used as query against the twelve assembled isolates via TBLASTN. […] The latter genes are likely absent on the E. coli and R. planticola genomes and present on different species.
Whole genome sequencing and assembly of bacterial isolates. […]
Minimal inhibitory concentrations. Minimal inhibitory concentrations (MICs) were determined according to Clinical and Laboratory Standards Institute guidelines for microdilution susceptibility testing {Wikler, 2006}. […] The optical density (OD) of each well was measured at 600 nm using an automated microtiter plate reader (BIO-TEK, Synergy HT). The MIC corresponded to the lowest antibiotic concentration at which no growth was detected. […]

## CO/N=C(\C(=O)N[C@@H]1C(=O)N2C(C(=O)O)=C(COC(C)=O)CS[C@H]12)c1csc(N)n1 [Cefotaxime]
Isolate 7005-9; isolate 7005-9
  Resistant/Susceptible according to breakpoints for clinical resistance: (R)
Isolate 7005-9
  MIC: 128 µg/mL
Isolate 7174-2; isolate 7174-2
  Resistant/Susceptible according to breakpoints for clinical resistance: (S)
Isolate 7174-2
  MIC: < 4 µg/mL
Isolate 7174-5; isolate 7174-5
  Resistant/Susceptible according to breakpoints for clinical resistance: (S)
Isolate 7174-5
  MIC: < 4 µg/mL
Isolate 7174-4; isolate 7174-4
  Resistant/Susceptible according to breakpoints for clinical resistance: (S)
Isolate 7174-4
  MIC: < 4 µg/mL
Isolate 7084-1; isolate 7084-1
  Resistant/Susceptible according to breakpoints for clinical resistance: (S)
Isolate 7084-1
  MIC: < 4 µg/mL
Isolate 7084-4; isolate 7084-4
  Resistant/Susceptible according to breakpoints for clinical resistance: (S)
Isolate 7084-4
  MIC: < 4 µg/mL
Isolate 7122-9; isolate 7122-9
  Resistant/Susceptible according to breakpoints for clinical resistance: (S)
Isolate 7122-9
  MIC: < 4 µg/mL
Isolate 7005-5; isolate 7005-5
  Resistant/Susceptible according to breakpoints for clinical resistance: (R)
Isolate 7005-5
  MIC: 32 µg/mL
Isolate 7005-11; isolate 7005-11
  Resistant/Susceptible according to breakpoints for clinical resistance: (R)
Isolate 7005-11
  MIC: 512 µg/mL
Isolate 7122-1; isolate 7122-1
  Resistant/Susceptible according to breakpoints for clinical resistance: (S)
Isolate 7122-1
  MIC: < 4 µg/mL
Isolate 7122-2; isolate 7122-2
  Resistant/Susceptible according to breakpoints for clinical resistance: (S)
Isolate 7122-2
  MIC: < 4 µg/mL
DH5α
  Resistant/Susceptible according to breakpoints for clinical resistance: (S)
  MIC: < 4 µg/mL
Isolate 7084-5; isolate 7084-5
  Resistant/Susceptible according to breakpoints for clinical resistance: (S)
Isolate 7084-5
  MIC: < 4 µg/mL
Isolate 7005-13; isolate 7005-13
  Resistant/Susceptible according to breakpoints for clinical resistance: (R)
Isolate 7005-13
  MIC: 512 µg/mL

## CN(C)[C@@H]1C(O)=C(C(N)=O)C(=O)[C@@]2(O)C(O)=C3C(=O)c4c(O)cccc4[C@@](C)(O)[C@H]3C[C@@H]12 [Tetracycline]
Isolate 7174-2
  MIC: 64 µg/mL
Isolate 7174-5
  MIC: 64 µg/mL
Isolate 7174-4
  MIC: 128 µg/mL
Isolate 7084-1
  MIC: 16 µg/mL
Isolate 7084-4
  MIC: 16 µg/mL
Isolate 7122-9
  MIC: 8 µg/mL
Isolate 7122-1
  MIC: 16 µg/mL
Isolate 7122-2
  MIC: 8 µg/mL
DH5α
  MIC: < 4 µg/mL
Isolate 7084-5
  MIC: 16 µg/mL

## Gentamicin
Isolate 7005-9; isolate 7005-9
  Minimum inhibitory concentration (MIC): <4 µg/mL
  Resistant/Susceptible according to breakpoints for clinical resistance: (S)
Isolate 7174-2; isolate 7174-2
  Minimum inhibitory concentration (MIC): <4 µg/mL
  Resistant/Susceptible according to breakpoints for clinical resistance: (S)
[1]
  Resistance among the isolates: No resistance
Isolate 7174-5; isolate 7174-5
  Minimum inhibitory concentration (MIC): <4 µg/mL
  Resistant/Susceptible according to breakpoints for clinical resistance: (S)
Isolate 7174-4; isolate 7174-4
  Minimum inhibitory concentration (MIC): <4 µg/mL
  Resistant/Susceptible according to breakpoints for clinical resistance: (S)
Isolate 7084-1; isolate 7084-1
  Minimum inhibitory concentration (MIC): <4 µg/mL
  Resistant/Susceptible according to breakpoints for clinical resistance: (S)
Isolate 7084-4; isolate 7084-4
  Minimum inhibitory concentration (MIC): <4 µg/mL
  Resistant/Susceptible according to breakpoints for clinical resistance: (S)
Isolate 7122-9; isolate 7122-9
  Minimum inhibitory concentration (MIC): <4 µg/mL
  Resistant/Susceptible according to breakpoints for clinical resistance: (S)
Isolate 7005-5; isolate 7005-5
  Minimum inhibitory concentration (MIC): <4 µg/mL
  Resistant/Susceptible according to breakpoints for clinical resistance: (S)
Isolate 7005-11; isolate 7005-11
  Minimum inhibitory concentration (MIC): <4 µg/mL
  Resistant/Susceptible according to breakpoints for clinical resistance: (S)
Isolate 7122-1; isolate 7122-1
  Minimum inhibitory concentration (MIC): <4 µg/mL
  Resistant/Susceptible according to breakpoints for clinical resistance: (S)
Isolate 7122-2; isolate 7122-2
  Minimum inhibitory concentration (MIC): <4 µg/mL
  Resistant/Susceptible according to breakpoints for clinical resistance: (S)
DH5α
  Minimum inhibitory concentration (MIC): <4 µg/mL
  Resistant/Susceptible according to breakpoints for clinical resistance: (S)
Isolate 7084-5; isolate 7084-5
  Minimum inhibitory concentration (MIC): <4 µg/mL
  Resistant/Susceptible according to breakpoints for clinical resistance: (S)
Isolate 7005-13; isolate 7005-13
  Minimum inhibitory concentration (MIC): <4 µg/mL
  Resistant/Susceptible according to breakpoints for clinical resistance: (S)

## CO/N=C(\C(=O)N[C@@H]1C(=O)N2C(C(=O)[O-])=C(C[N+]3(C)CCCC3)CS[C@H]12)c1csc(N)n1 [Cefepime]
Isolate 7005-9
  MIC: 64 µg/mL
Isolate 7174-2
  MIC: < 4 µg/mL
Isolate 7174-5
  MIC: < 4 µg/mL
Isolate 7174-4
  MIC: < 4 µg/mL
Isolate 7084-1
  MIC: < 4 µg/mL
Isolate 7084-4
  MIC: < 4 µg/mL
Isolate 7122-9
  MIC: < 4 µg/mL
Isolate 7005-5
  MIC: 16 µg/mL
Isolate 7005-11
  MIC: 512 µg/mL
Isolate 7122-1
  MIC: < 4 µg/mL
Isolate 7122-2
  MIC: < 4 µg/mL
DH5α
  MIC: < 4 µg/mL
Isolate 7084-5
  MIC: < 4 µg/mL
Isolate 7005-13
  MIC: 512 µg/mL
